Experimental data reported in US11548860B2, “Pharmacophores, compounds and methods having application in the treatment of cancer through inhibition of CYP17A1 and CYP19A1” (MANGOSUTHU UNIVERSITY OF TECHNOLOGY, priority 2015, dated 2023).

Columns and labels:
[1] = Toxicity studies on the molecules in Table 2
Solubility in DMSO = format: physicochemical
[2] = system: CYP1A2, CYP2C9, CYP2C19, CYP2D6, and CYP3A4; test: Summary of inhibition of metabolic CYP450 isoforms (5 CYP panel); format: in vitro ADME, human; conditions: Table 2
CYP2D6 = CYP2D6 (Homo sapiens (Human), UniProt P10635); test: CYP inhibition against major 5 human liver CYPs in E. coli CYPEX membranes: CYP2D6 (bufuralol); format: in vitro ADME; conditions: bactosome mix, 10 min, 37° C.
Sequence of CYP2D6 (P10635 whole entry, canonical isoform): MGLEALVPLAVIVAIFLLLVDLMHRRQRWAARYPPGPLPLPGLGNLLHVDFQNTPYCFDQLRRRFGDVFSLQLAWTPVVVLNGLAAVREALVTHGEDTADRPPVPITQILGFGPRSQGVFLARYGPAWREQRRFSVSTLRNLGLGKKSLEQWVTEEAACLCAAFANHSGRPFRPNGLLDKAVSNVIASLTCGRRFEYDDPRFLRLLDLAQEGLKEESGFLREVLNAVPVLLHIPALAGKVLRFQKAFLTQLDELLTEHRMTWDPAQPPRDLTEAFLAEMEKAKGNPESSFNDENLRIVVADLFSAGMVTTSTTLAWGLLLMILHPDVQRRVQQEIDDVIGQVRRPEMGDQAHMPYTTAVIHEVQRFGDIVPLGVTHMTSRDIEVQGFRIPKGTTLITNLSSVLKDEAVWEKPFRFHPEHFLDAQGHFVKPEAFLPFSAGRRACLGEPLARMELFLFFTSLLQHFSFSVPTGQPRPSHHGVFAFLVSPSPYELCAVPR
Method: (§1) Test compounds and control inhibitors were prepared as stocks in DMSO from the solid compound. The stocks were diluted in 0.1 M phosphate buffer (pH 7.4) at four times the final concentration prior to addition into the incubation tubes. The final DMSO concentration was 1%. […] Catalogue number CYP/XG001, Batch XG001001). Selective and FDA accepted substrates for each isoform were used at a concentration around the Km for each substrate. Activity of each isoform was assessed by measuring the appearance of an isoform-specific metabolite. A cocktail of 5 isoform-specific inhibitors was used as a positive control. […] Reactions were stopped by addition of 100 μl MeOH/1 μM Tolbutamide (internal standard). The quenched samples were mixed thoroughly and protein precipitated at −20° C. overnight. Samples were centrifuged at 2,500×g (3,400 rpm) for 20 minutes, 4° C. The supernatants were transferred to a 96 well-plate and analysed by LC-MS/MS. The following LC-MS/MS conditions were used to analyse the 5CYP inhibition samples: • Column: Waters ACE Excel C18-AR, 50×2.1 mm, 2 μm • Mobile phase A: MilliQ water+0.1% formic acid • Mobile phase B: Methanol+0.1% formic acid • Flow rate: 0.8 ml/min The CYP activities for each test compound/positive control inhibitor at each concentration were converted to % of control activity (CA). The LC-MS/MS peak responses (CYP metabolite peak area/internal standard peak area) for each test compound or positive control inhibitor were used and the response for each sample was expressed as a percentage of an uninhibited control (DMSO incubation).

CYP2C9 = CYP2C9 (Homo sapiens (Human), UniProt P11712); test: CYP inhibition against major 5 human liver CYPs in E. coli CYPEX membranes: CYP2C9 (diclofenac); format: in vitro ADME; conditions: bactosome mix, 10 min, 37° C.
Sequence of CYP2C9 (P11712 whole entry): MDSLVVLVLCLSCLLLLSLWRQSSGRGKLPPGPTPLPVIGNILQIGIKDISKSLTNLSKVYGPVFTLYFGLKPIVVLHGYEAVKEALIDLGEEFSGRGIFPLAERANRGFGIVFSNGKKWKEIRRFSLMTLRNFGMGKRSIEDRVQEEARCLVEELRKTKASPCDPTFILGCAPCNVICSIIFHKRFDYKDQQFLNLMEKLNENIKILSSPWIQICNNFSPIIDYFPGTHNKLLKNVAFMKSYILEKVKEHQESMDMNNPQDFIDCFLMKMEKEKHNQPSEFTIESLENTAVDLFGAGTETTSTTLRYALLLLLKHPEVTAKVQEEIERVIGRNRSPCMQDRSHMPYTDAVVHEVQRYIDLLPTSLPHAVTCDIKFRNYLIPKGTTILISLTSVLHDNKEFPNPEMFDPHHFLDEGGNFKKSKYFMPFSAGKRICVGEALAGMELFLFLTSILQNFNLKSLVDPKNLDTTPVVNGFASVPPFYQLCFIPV

CYP19A1 = CYP19A1 (Homo sapiens (Human), UniProt P11511); test: CYP19A1 inhibition, CYP19/MFC High Throughput Inhibitor Screen Kit, fluorescence; format: biochemical
Sequence of CYP19A1 (P11511 whole entry): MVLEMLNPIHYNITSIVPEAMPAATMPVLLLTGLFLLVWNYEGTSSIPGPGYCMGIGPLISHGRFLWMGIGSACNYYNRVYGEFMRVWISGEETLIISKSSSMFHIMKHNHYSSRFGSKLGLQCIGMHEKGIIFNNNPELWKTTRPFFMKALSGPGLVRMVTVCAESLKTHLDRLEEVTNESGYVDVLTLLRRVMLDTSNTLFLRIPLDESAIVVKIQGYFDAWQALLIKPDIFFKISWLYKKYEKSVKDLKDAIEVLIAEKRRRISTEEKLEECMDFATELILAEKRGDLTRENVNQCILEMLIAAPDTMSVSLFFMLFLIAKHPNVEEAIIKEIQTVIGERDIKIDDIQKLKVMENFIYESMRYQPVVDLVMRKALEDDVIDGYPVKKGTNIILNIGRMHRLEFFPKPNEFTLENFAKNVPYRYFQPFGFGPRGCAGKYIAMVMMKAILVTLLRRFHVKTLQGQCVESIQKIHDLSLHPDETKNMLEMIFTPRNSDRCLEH
Method: Test compounds and control inhibitors were prepared as stocks in either Acetonitrile or DMSO from the solid compound. Compounds were serially diluted in ½ log steps in the same solvent. CYP19A1 inhibition experiments were performed using the CYP19/MFC High Throughput Inhibitor Screen Kit (Corning). Test compounds were tested in seven concentrations: […] CYP19A1 reactions were performed in black 96 well-plates (Greiner) according to the manufacturer's instructions. […] Final organic solvent concentrations were either 4% (v/v) acetonitrile or 0.5% (v/v) Dimethyl sulfoxide. The plates were covered with self-adhesive film lids and incubated for 10 minutes at 37° C. Reactions were terminated by the addition of 75 μl Stop Solution (100 mM Tris base in acetonitrile: MilliQ water (80:20). […] The CYP activities for each test compound/positive control inhibitor at each concentration were converted to % of control activity (CA). The LC-MS/MS peak responses (CYP metabolite peak area/internal standard peak area) for each test compound or positive control inhibitor were used and the response for each sample was expressed as a percentage of an uninhibited control (DMSO incubation).

CYP17A1 = CYP17A1 (Homo sapiens (Human), UniProt P05093); test: CYP17A1 inhibition, CYP17A1 bactosomes, progesterone substrate, LC-MS/MS; format: biochemical; conditions: for IC50: 0.1 μM progesterone, 20 min, 37° C.
Sequence of CYP17A1 (P05093 whole entry): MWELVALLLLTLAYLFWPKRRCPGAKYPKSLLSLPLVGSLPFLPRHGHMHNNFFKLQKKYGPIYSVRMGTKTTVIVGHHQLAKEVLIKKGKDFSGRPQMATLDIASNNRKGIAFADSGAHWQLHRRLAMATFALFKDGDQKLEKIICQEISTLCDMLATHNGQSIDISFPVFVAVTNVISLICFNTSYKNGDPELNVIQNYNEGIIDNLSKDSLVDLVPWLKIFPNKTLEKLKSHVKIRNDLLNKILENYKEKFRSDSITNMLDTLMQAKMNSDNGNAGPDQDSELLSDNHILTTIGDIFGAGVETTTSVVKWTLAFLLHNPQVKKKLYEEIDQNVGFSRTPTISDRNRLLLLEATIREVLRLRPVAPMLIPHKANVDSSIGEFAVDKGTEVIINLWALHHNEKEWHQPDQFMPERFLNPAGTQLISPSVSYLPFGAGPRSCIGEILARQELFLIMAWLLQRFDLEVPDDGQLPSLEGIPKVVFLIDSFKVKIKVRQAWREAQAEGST
Method: CYP17A1 inhibition was measured using 20 pmol/ml CYP17A1 bactosomes (Cypex, Dundee, UK) and 0.1 μM progesterone as a substrate and 1 mM NADPH in 50 mM potassium phosphate buffer pH 7.4 containing 5 mM magnesium chloride. Inhibitors were dissolved in DMSO and serially diluted in seven ½ log steps, final concentrations ranging from 50 μA to 50 nM. Reaction volume was 100 μl and final DMSO concentration was 1% (v/v). Reactions were started by the addition of NADPH and incubated at 37° C. for 20 minutes with shaking at 1800 rpm on a Bioshake IQ (Q-Instruments, Jena, Germany). Reactions were terminated by the addition of 200 μl methanol containing 1 μM tolbutamide as an internal standard.

CYP1A2 = CYP1A2 (Homo sapiens (Human), UniProt P05177); test: CYP inhibition against major 5 human liver CYPs in E. coli CYPEX membranes: CYP1A2 (tacrine); format: in vitro ADME; conditions: bactosome mix, 10 min, 37° C.
Sequence of CYP1A2 (P05177 whole entry): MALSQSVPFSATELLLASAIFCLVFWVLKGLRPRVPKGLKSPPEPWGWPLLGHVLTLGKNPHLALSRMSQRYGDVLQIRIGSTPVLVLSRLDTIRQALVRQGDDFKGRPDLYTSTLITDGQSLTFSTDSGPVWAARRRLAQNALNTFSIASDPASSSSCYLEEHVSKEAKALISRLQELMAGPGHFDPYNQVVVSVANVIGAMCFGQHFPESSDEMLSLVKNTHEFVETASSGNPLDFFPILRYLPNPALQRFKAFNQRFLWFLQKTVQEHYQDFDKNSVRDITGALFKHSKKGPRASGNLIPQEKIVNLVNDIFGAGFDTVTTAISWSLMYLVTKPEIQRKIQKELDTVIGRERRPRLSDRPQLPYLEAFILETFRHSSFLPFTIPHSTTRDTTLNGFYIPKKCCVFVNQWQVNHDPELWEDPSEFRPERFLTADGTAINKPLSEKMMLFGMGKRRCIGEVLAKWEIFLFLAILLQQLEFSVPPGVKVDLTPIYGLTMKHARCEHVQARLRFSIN
Method: as §1, with “The following LC-MS/MS conditions were used to analyse the 5CYP inhibition samples: • Column: Waters ACE Excel C18-AR, 50×2.1 mm, 2 μm • Mobile phase A: MilliQ water+0.1% formic acid • Mobile phase B: Methanol+0.1% formic acid • Flow rate: 0.8 ml/min The CYP activities for each test compound/positive control inhibitor at each concentration were converted to % of control activity (CA).” left out

CYP2C19 = CYP2C19 (Homo sapiens (Human), UniProt P33261); test: CYP inhibition against major 5 human liver CYPs in E. coli CYPEX membranes: CYP2C19 ((S)-mephenytoin); format: in vitro ADME; conditions: bactosome mix, 10 min, 37° C.
Sequence of CYP2C19 (P33261 whole entry): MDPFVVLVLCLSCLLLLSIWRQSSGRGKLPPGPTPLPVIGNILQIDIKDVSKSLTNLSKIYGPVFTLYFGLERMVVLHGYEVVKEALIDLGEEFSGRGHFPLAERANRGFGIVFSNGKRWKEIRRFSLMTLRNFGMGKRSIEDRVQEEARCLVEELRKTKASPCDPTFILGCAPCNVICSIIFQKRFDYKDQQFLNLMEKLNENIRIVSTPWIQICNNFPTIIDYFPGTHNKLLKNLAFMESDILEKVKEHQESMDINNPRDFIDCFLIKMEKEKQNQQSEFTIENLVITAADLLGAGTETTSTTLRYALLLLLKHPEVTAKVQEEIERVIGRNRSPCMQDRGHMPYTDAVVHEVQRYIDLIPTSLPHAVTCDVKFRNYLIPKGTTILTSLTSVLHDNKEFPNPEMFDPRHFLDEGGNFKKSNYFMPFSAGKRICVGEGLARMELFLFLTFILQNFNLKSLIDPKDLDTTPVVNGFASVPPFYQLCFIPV
Method: as §1, with “The following LC-MS/MS conditions were used to analyse the 5CYP inhibition samples: • Column: Waters ACE Excel C18-AR, 50×2.1 mm, 2 μm • Mobile phase A: MilliQ water+0.1% formic acid • Mobile phase B: Methanol+0.1% formic acid • Flow rate: 0.8 ml/min The CYP activities for each test compound/positive control inhibitor at each concentration were converted to % of control activity (CA).” left out

CYP3A4 = CYP3A4 (Homo sapiens (Human), UniProt P08684); test: CYP inhibition against major 5 human liver CYPs in E. coli CYPEX membranes: CYP3A4 (midazolam); format: in vitro ADME; conditions: bactosome mix, 10 min, 37° C.
Sequence of CYP3A4 (P08684 whole entry): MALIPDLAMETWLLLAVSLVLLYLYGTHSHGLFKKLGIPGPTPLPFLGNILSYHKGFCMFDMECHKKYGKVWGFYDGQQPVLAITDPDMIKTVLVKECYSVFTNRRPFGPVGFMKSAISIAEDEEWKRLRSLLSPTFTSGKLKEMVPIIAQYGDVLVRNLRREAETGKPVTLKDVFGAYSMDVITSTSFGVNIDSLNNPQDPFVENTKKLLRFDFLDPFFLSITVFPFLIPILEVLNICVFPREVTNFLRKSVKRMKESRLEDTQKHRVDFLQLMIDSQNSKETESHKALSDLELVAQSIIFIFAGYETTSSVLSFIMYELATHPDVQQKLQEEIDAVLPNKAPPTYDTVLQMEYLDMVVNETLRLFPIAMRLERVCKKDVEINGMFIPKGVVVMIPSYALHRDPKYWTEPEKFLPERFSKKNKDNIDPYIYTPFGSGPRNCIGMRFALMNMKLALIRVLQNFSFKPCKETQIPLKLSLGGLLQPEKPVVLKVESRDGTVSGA
Method: as §1, with “The following LC-MS/MS conditions were used to analyse the 5CYP inhibition samples: • Column: Waters ACE Excel C18-AR, 50×2.1 mm, 2 μm • Mobile phase A: MilliQ water+0.1% formic acid • Mobile phase B: Methanol+0.1% formic acid • Flow rate: 0.8 ml/min The CYP activities for each test compound/positive control inhibitor at each concentration were converted to % of control activity (CA).” left out

CYP17A1 and CYP19A1 = test: Classification as Dual Inhibitor (inhibitor of both CYP17A1 and CYP19A1); conditions: inhibitors of both CYP17A1 and CYP19A1

| SMILES | safety profile [1] | Soluble in DMSO (Solubility in DMSO) | inhibition of various CYP450 isoforms (drug-drug interaction) [2] | IC50 (CYP2D6) | IC50 (CYP2C9) | IC50 (CYP19A1; 25 μM MFC, 10 min, 37° C.) | IC50 values against CYP19A1, potency level in words (CYP19A1; Table 2) | IC50 (CYP17A1) | IC50 (CYP1A2) | IC50 (CYP2C19) | IC50 (CYP3A4) | Dual Inhibitor classification (CYP17A1 and CYP19A1) | inhibitory potency of CYP17A1, level in words (CYP17A1; Table 2) |
| --- | --- | --- | --- | --- | --- | --- | --- | --- | --- | --- | --- | --- | --- |
| Cc1cccc(C(=O)OCCOc2ccc(S(N)(=O)=O)cc2)c1N [Compound 4, 2-(4-sulfamoylphenoxy) ethyl 2-amino-3-methylbenzoate] | reasonably good safety profiles | Yes | inhibit various CYP450 isoforms | 3.3 µM |  |  |  |  |  |  |  |  |  |
| O=C1COc2cc(NC(=O)c3cc(NC(=O)c4cn[nH]c4)ccc3Cl)ccc2N1 [Compound 12, N-{4-chloro-3-[(3-oxo-3,4-dihydro-2H-1,4-benzoxazin-7-yl)carbamoyl]phenyl}-1H-pyrazole-4-carboxamide] | excellent safety profiles | Yes |  | > 50 µM | 22.5 µM | 0.06 µM | sub-micromolar inhibitory potency levels | > 50 µM | > 50 µM | > 50 µM | 18.3 µM | Dual Inhibitors |  |
| CCCC(=O)Nc1ccc(C(=O)C(C)OC(=O)c2n[nH]c3ccccc23)cc1 (racemic) [Compound 6, 1-(4-butanamidophenyl)-1-oxopropan-2-yl-1H-indazole-3-carboxylate] | excellent safety profiles | Yes |  | > 50 µM | 2.5 µM |  |  | > 50 µM | > 50 µM | 41.2 µM | > 50 µM |  | micromolar levels |
